Experimental data from BindingDB's records for doi:10.1021/jm0101085 (University of North Carolina, 2001).

Key:
Tubulin alpha-1A chain [1] = biological target: T1, Tubulin alpha-1A chain (Sus scrofa, UniProt P02550); experiment: Inhibition of colchicine binding(ICB). [3H]colchicine concentration was 5 uM
Tubulin alpha-1A chain [2] = biological target: T1, Tubulin alpha-1A chain; experiment: Inhibition of colchicine binding(ICB). Tubulin concentration was 1 uM
Tubulin alpha-1A chain [3] = biological target: T1, Tubulin alpha-1A chain; experiment: Percent inhibition of colchicine binding(ICB) at 5 uM [3H]colchicine concentration

T1 sequence (P02550 whole entry, looked up): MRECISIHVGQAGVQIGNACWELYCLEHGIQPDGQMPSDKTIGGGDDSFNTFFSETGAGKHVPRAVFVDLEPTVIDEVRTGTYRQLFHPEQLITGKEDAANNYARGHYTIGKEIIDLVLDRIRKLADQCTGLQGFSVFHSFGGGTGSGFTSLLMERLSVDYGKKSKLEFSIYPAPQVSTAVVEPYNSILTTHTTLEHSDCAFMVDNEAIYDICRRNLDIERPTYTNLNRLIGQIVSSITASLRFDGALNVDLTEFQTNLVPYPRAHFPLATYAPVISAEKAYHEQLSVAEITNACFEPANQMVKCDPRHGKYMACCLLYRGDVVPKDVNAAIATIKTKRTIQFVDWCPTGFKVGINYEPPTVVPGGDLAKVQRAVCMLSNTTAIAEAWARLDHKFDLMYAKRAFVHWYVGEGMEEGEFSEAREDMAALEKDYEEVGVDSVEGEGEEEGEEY

Compound | Inhibition (Tubulin alpha-1A chain [1]) | Inhibition (Tubulin alpha-1A chain [2]) | Inhibition (Tubulin alpha-1A chain [3])
Oc1cc(-c2ccccc2F)nc2ccc(N3CCCC3)cc12 [2-(2-fluorophenyl)-6-(pyrrolidin-1-yl)quinolin-4(1H)-one] | 93% | 76% | 
Oc1cc(-c2ccccc2F)nc2cc3c(cc12)OCO3 [2-(2-fluorophenyl)-6,7-methylenedioxyquinolin-4-one] |  |  | 39%
